Results: patent publication US10508103B2, “Benzimidazole-linked indole compound acting as novel divalent IAP antagonist” (MEDSHINE DISCOVERY INC., priority 2016, dated 2019)

Columns and labels:
cIAP2-BIR3 Protein = cIAP2-BIR3 Protein (Homo sapiens (Human), UniProt Q13489); experiment: Fluorescence polarization affinity of compounds to cIAP2-BIR3; assay type: binding; conditions: cIAP2-BIR3 60 nM; 5 nM ARPFAQ-K(5-FAM)-NH2 probe; FP; pH 7.5; read-out: affinity to target protein in vitro, cIAP2-BIR3 Protein (IC50)
Chain of cIAP2-BIR3 Protein (Q13489 238-349): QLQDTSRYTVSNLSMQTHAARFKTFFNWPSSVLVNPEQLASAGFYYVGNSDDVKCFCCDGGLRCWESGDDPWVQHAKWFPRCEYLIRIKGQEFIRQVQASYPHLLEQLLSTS
Procedure: (§1) Biological Assay 1: affinity of compounds to cIAP1-BIR3, cIAP2-BIR3, XIAP-BIR3 • 1) Affinity of compounds listed in table to cIAP1-BIR3, Ciap2-BIR3, XIAP-BIR3 was tested referring to Nikolovska-Colesks, Z. et.Al. (Analytical Biochemistry,2004,232:261-273) to obtain IC50 value. Generally speaking, in 10-dose IC50 mode, IAP antagonists with different concentrations were diluted in series by 3-fold and fluorescence labelled ARPFAQ-K (5-FAM)-NH2 peptide was used as probe to test compounds binding to protein BIR3 domain. • 2) Test condition: cIAP1-BIR3: 20 nM; cIAP2-BIR3: 60 nM; XIAP-BIR3: 30 nM; 5 nM probe in 100 mM tripotassium phosphate, pH 7.5, 0.1 mg/mL BSA, 0.005% Triton X100 and 0.5% DMSO. • 3) Test procedure: compounds were added into protein with different concentrations by using ECHO (LabCyte), and then the mixture was preincubated for 15 min. The probe was added and the final concentration was 5 nM. After incubating for 60 min, FP was tested and mP was calculated. Experiment results were list in table 1.

XIAP-BIR3 Protein = XIAP-BIR3 Protein (Homo sapiens (Human), UniProt P98170); experiment: Fluorescence polarization affinity of compounds to XIAP-BIR3; assay type: binding; conditions: XIAP-BIR3 30 nM; 5 nM ARPFAQ-K(5-FAM)-NH2 probe; FP; pH 7.5; read-out: affinity to target protein in vitro, XIAP-BIR3 Protein (IC50)
Chain of XIAP-BIR3 Protein (P98170 241-356): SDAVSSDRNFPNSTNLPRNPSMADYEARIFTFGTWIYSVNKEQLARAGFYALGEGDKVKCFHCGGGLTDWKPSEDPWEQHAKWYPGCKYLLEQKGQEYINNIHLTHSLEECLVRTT
Procedure: as §1

[1] = test system: NF-κB Luciferase Reporter Hela cells; experiment: TNF-α inducing NF-κB reporter; assay type: cell-based
Procedure: Biological Assay 2: TNF-α inducing NF-κB reporter
• 1) tested compounds were added into DMSO to give parent liquor (10 mM); • 2) reference compound Birinapant (32 μL, 10 mM) was added into DMSO (128 μL) to give a solution (2 mM); • 3) 0.5 μL reference compound Birinapant (2 mM) and tested compounds (10 mM) were taken by Echo and added into Greiner 96 well black cell culture plate respectively. The initial concentration of the reference compound and tested compound was 10 μM and 50 μM, respectively. Then, the reference compound and tested compounds were diluted at 9 points in series by 5-fold; and every plate was repeated for 3 times. • 4) the reference compound WXFL2012A001 (Birinapant) (final concentration: 10 μM) as HPE and DMSO (final concentration: 0.5%) as ZPE.
• 5) purpose of the three repeated plates: the first plate was used for testing compounds' activity;
the second plate was used for testing cytotoxicity of the compounds; the third plate was used for solution replacement of the first and second plates: mixing inducer TNF-α and medium containing 0.1% FBS, and then being added to the third plate and the resultant mixture was transferred to the first plate where supernatants had been removed.
• 1) removing medium in NF-iBLuciferase Reporter Hela cell culture flask and washing cell once with PBS (10 mL) • 2) adding 0.25% pancreatin (3 mL) to T150 cell culture flask, and placinginto cell incubator (37° C., 5%CO2) and dissociating cell for 3 min, and then medium (10 mL) was added to end dissociation and blowing cells with electric pipette until cells were dispersed into single cell. • 3) Calculating cell density with cell counter Countstar • 4) Adjusting NF-κB Luciferase Reporter Hela density with medium to 2.0×10^5 cells/mL • 5) Adding cells to two Greiner 96 well black cell culture plates containing compounds, (100 μL per well (2.0×10^4 cells/well)), one plate was used for testing compounds' activity, another was used for testing cytotoxicity of the compounds. • 6) Placing cell culture plates into cell incubator (37° C., 5%CO2) and incubatingfor 24 h Second Day TNF-α Inducing • 1) TNF-α (100 μg/mL) was diluted into 20 ng/mL with 0.1% FBS medium and transferredto the third plate with 100 μL per well • 2) Removing medium of the first 96 well black cell culture plate (compound activity testing plate) after 24 h, replacing with fresh medium containing the compound and 20 ng/mL TNF-α in the third plate • 3) Placing cell culture plate into cell incubator (37° C., 5% CO2) and incubatingfor 6 h • 4) after 6 h, compound's activity in the first plate was tested according to Bright-Glo (Promega) manual method, luciferase signal in each well was tested by Envision plate reader • 5) compound's cytotoxicity in the second plate was tested according to ATPlite 1Step (Perkin Elmer) manual method, luciferase signal in each well was tested by Envision plate reader • 6) analyzing with software to obtain EC50 of compound.

cIAP1-BIR3 Protein = cIAP1-BIR3 Protein (Homo sapiens (Human), UniProt Q13490); experiment: Fluorescence polarization affinity of compounds to cIAP1-BIR3; assay type: binding; conditions: cIAP1-BIR3 20 nM; 5 nM ARPFAQ-K(5-FAM)-NH2 probe; FP; pH 7.5; read-out: affinity to target protein in vitro, cIAP1-BIR3 Protein (IC50)
Chain of cIAP1-BIR3 Protein (Q13490 253-363): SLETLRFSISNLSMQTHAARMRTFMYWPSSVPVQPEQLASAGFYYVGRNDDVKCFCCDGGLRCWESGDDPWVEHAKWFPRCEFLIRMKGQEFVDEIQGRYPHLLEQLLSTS
Procedure: as §1

[2] = Homo sapiens, 6 h, Table 3, 20 ng/mL TNF-α, Bright-Glo luciferase, values given as ranges

Structure (SMILES)	IC50 (cIAP2-BIR3 Protein)	IC50 (XIAP-BIR3 Protein)	EC50 [1, 2]	IC50 (cIAP1-BIR3 Protein)	EC50 ([1]; Homo sapiens, 6 h, Table 4, 20 ng/mL TNF-α, Bright-Glo luciferase, exact values with control Birinapant)	EC50 ([1]; Homo sapiens, Table 3, 20 ng/mL TNF-α, 6 h, Bright-Glo luciferase, values given as ranges)
CC[C@H](NC(=O)[C@H](C)NC)C(=O)N1C[C@@H](F)C[C@H]1Cc1c(-c2nc3cc(F)ccc3n2C[C@@H]2CCCN2C(=O)[C@@H](NC(=O)[C@H](C)NC)C(C)(C)C)[nH]c2cc(F)ccc12 [Embodiment 40]	10 to 100 nM	10 to 100 nM	< 10 nM	< 10 nM	–	–
CC[C@H](NC(=O)[C@H](C)NC)C(=O)N1C[C@@H](F)C[C@H]1Cc1c(-c2nc3cc(F)ccc3n2C[C@@H]2C[C@H](F)CN2C(=O)[C@@H](NC(=O)[C@H](C)NC)C(C)(C)C)[nH]c2cc(F)ccc12 [Embodiment 19]	10 to 100 nM	10 to 100 nM	< 10 nM	< 10 nM	–	–
CN[C@@H](C)C(=O)N[C@H](C(=O)N1C[C@@H](F)C[C@H]1Cc1c(-c2nc3cc(F)ccc3n2C[C@@H]2C[C@H](F)CN2C(=O)[C@@H](NC(=O)[C@H](C)NC)C2CCCCC2)[nH]c2cc(F)ccc12)C1CC1 [Embodiment 30]	10 to 100 nM	10 to 100 nM	< 10 nM	< 10 nM	–	–
CC[C@H](NC(=O)[C@H](C)NC)C(=O)N1C[C@@H](F)C[C@H]1Cn1c(-c2[nH]c3cc(F)ccc3c2C[C@@H]2C[C@H](F)CN2C(=O)[C@@H](NC(=O)[C@H](C)NC)C2CCCCC2)nc2cc(F)ccc21 [Embodiment 27]	< 10 nM	< 10 nM	< 10 nM	< 10 nM	–	–
CC[C@H](NC(=O)[C@H](C)NC)C(=O)N1C[C@@H](F)C[C@H]1Cn1c(-c2[nH]c3cc(F)ccc3c2C[C@@H]2C[C@H](F)CN2C(=O)[C@@H](NC(=O)[C@H](C)NC)C2CC2)nc2cc(F)ccc21 [Embodiment 25]	10 to 100 nM	10 to 100 nM	10 to 100 nM	< 10 nM	–	–
CC[C@H](NC(=O)[C@H](C)NC)C(=O)N1C[C@@H](F)C[C@H]1Cc1c(-c2nc3cc(F)ccc3n2C[C@@H]2C[C@H](F)CN2C(=O)[C@@H](NC(=O)[C@H](C)NC)C(C)C)[nH]c2cc(F)ccc12 [Embodiment 18]	10 to 100 nM	10 to 100 nM	< 10 nM	< 10 nM	6.05 nM	–
CC[C@H](NC(=O)[C@H](C)NC)C(=O)N1C[C@@H](F)C[C@H]1Cn1c(-c2[nH]c3cc(F)ccc3c2C[C@@H]2C[C@H](F)CN2C(=O)[C@@H](NC(=O)[C@H](C)NC)C(C)(C)C)nc2cc(F)ccc21 [Embodiment 26]	< 10 nM	< 10 nM	–	< 10 nM	–	< 10 nM
